Experimental data from patent EP0928784B1, “Sertraline polymorph having improved water solubility” (TORCAN CHEMICAL Ltd, priority 1997, dated 1999).
Structures can show the parent of a compound that is named as a salt. Where two headings read alike, the source gives them in different places.

Assays:
[1] = Solubility in aqueous fluids (qualitative, no method described); format: physicochemical
[2] = Stability of the crystalline form (qualitative, no method described); format: physicochemical; details: applicant's statement
[3] = as reported in U.S. Patent 5,248,699, among Forms I-V; cited from earlier work
[4] = Dissolution rate (qualitative, no method described); format: physicochemical; details: with regard to bioavailability in pharmaceutical formulations

Structure (SMILES) | solubility in aqueous fluids ([1]; as compared with Form I sertraline hydrochloride) | stability [2] | stability [3] | dissolution rate [4] | solubility ([1]; prepared in applicant's laboratory according to Sysko et al., aqueous fluids)
CN[C@H]1CC[C@@H](c2ccc(Cl)c(Cl)c2)c2ccccc21 [polymorph T1, (1S-cis)-4-(3,4-dichlorophenyl)-1,2,3,4-tetrahydro-N-methyl-1-naphthalenamine] | enhanced solubility in aqueous fluids | acceptable stability |  |  | 
CN[C@H]1CC[C@@H](c2ccc(Cl)c(Cl)c2)c2ccccc21 [sertraline hydrochloride Form I, (1S-cis)-4-(3,4-dichlorophenyl)-1,2,3,4-tetrahydro-N-methyl-1-naphthalenamine] |  | stable as reported | greatest stability | too slow to provide adequate bioavailability | extremely insoluble
